Columns and labels:
[1] = target: T1, E. coli RecA protein (Escherichia coli, UniProt P0A7G6); experiment: RecA ATPase luciferase assay; assay type: biochemical; details: compounds of FIGS. 2A and 2B
T1 construct: purchased New England Biolabs
Description: RecA is a DNA-dependent ATPase (i.e., it catalyzes the reaction adenosine triphosphate [ATP]→adenosine diphosphate [ADP]). An assay was developed for RecA ATPase activity based on detection of the amount of ATP remaining in a reaction mixture following incubation of RecA protein, DNA, and ATP. In the assay, E. coli RecA protein is incubated in reaction buffer with DNA, ATP, and any test compound or compounds for a measured amount of time. The quantity of ATP remaining after the RecA reaction is quantitated using a subsequent luciferase assay. The amount of ATP remaining can be compared to controls containing either a known inhibitor (full inhibition control) or no test compound (full activity control).
Kinase glo, Adenosine triphosphate, Adenosine 5′-O-(3-thiotriphosphate) plus and 384 well plates were obtained from Fisher, M13mp18 Single-stranded DNA, RecA protein, and T4 polynucleotide kinase reaction buffer (70 mM Tris-HCl pH7.5; 10 mM MgCl2; 5 mM DTT) were obtained from New England Biolabs.
Final reaction mixture contains: 0.5 μl of M13 single stranded DNA (250 μg/ml); 1.0 μl of 10×PHK buffer; 0.25 μl of RecA (2 mg/ml); 0.25 μl of 1 mM ATP; 0.25 μl of test compound in DMSO; and 12.0 μl of H2O.
Test compounds are incubated at room temperature in the presence of RecA protein and DNA prior to addition of ATP. This can be achieved by the preparation of two mixes, as indicated below. Desirably, both a no-DNA and a DNA/DMSO-only (i.e., no test compound) control were included.
The following steps are then performed: (1) Add 7.75 μl of mix 1 to the well of a 384 well plate; (2) Add 0.5 μl of the compound of interest; (3) Incubate at room temperature for 5 minutes; (4) Add 2.5 μl of the ATP mix. Incubate at room temperature for 30 minutes; (5) Add 12.5 μl of Promega Kinase glo plus; (6) Incubate at room temp for 10 minutes or more; and (7) Measure luminescence of the reaction.
Tested compounds were obtained from Boston University (1205 compounds from CMLD diversity library, available from Dr. Scott Schauss), IndoFine (66 compounds based on flavone structure), ChemdiV (48 compounds known to be ATPase inhibitors and 720 compounds structurally related to CB101 (described, for example, in U.S. Ser. No. 60/662,038), and Asinex. Five (5) tested compounds were bisflavones and 28 were predicted, based on structural modeling (see, for example, Example 20) to dock with Rec A. Many of the compounds are lipophilic, natural-product-like compounds. Others are flavones, bisflavones, flavonoids, coumarins, and/or heterocyclic compounds.
Percent inhibition is calculated according to the following equation:
[formula] A value of “−1” indicates higher than 50 μg/ml, therefore undetermined

[2] = tested on: S. aureus cells; experiment: Mutation/resistance assay (resistance to ciprofloxacin); assay type: cell-based
Description: This assay measures the rate at which mutant cells arise in the presence of an antibiotic agent. Cells are grown in the presence of antibiotic agent at a concentration above (generally well above, e.g., 4× or 8×) its MIC, and further in the presence or absence of a test agent (that may inhibit or enhance mutation).
Every 24 hours, an aliquot is removed from the culture and is diluted so that the antibiotic agent is no longer present at a concentration above its MIC (e.g., so that the antibiotic agent is present at 0.5×MIC or less). These aliquoted samples are then assayed to determine whether they can grow in the presence of the antibiotic agent. Specifically, when growth is observed in the presence of antibiotic agent at a concentration that is 4×MIC, then resistance is said to have developed. Test compounds can therefore be assayed to assess whether or not they can reduce the incidence of resistance (e.g., by inhibiting mutation).
These aliquoted samples were then assayed to determine whether they can grow in the presence of ciprofloxacin. […]

[3] = tested on: S. aureus strain S3 (ISP 794); experiment: Cell-based survival assay, S. aureus strain S3 (RecA+); details: 1 μg/ml ciprofloxacin + 25 μg/ml hinokiflavone, 16 hour time point

T1 sequence (P0A7G6 2-353): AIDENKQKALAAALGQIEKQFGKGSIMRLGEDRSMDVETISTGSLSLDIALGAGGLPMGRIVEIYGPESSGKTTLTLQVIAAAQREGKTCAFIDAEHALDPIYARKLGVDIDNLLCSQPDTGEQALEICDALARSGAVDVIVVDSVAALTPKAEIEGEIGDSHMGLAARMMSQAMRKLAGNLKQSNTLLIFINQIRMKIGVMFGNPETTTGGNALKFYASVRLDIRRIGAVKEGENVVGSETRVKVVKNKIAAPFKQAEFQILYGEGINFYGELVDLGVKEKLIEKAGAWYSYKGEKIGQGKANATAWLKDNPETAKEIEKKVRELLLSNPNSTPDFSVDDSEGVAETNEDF

## O=c1c(O)c(-c2ccc(O)cc2)oc2cc(O)ccc12 [3,7,4′-trihydroxyflavone]
[1]
  activity in RecA ATPase screen: particularly active

## O=c1cc(-c2ccc(O)cc2)oc2cc(O)c(O)c(O)c12 [6-hydroxy-apigenin]
[1]
  activity in RecA ATPase screen: particularly active

## O=c1cc(-c2ccc(O)cc2)oc2cc(O[C@@H]3O[C@H](CO)[C@@H](O)[C@H](O)[C@H]3O)cc(O)c12 [apigenin-7-O-glucoside]
[1]
  activity in RecA ATPase screen: particularly active

## O=c1cc(-c2ccc(O)cc2)oc2cc(O)cc(O)c12 [apigenin]
[1]
  activity in RecA ATPase screen: particularly active

## O=C(O)c1cn(C2CC2)c2cc(N3CCNCC3)c(F)cc2c1=O [ciprofloxacin, reference compound]
[2]; culture grown 0 days in 4×MIC ciprofloxacin, −Hinokiflavone
  Number of Wells in which Growth Observed in Presence of Ciprofloxacin at 4 × MIC: 0
[2]; culture grown 1 day in 4×MIC ciprofloxacin, −Hinokiflavone
  Number of Wells in which Growth Observed in Presence of Ciprofloxacin at 4 × MIC: 1
[2]; culture grown 5 days in 4×MIC ciprofloxacin, −Hinokiflavone
  Number of Wells in which Growth Observed in Presence of Ciprofloxacin at 4 × MIC: 2
[2]; culture grown 6 days in 4×MIC ciprofloxacin, −Hinokiflavone
  Number of Wells in which Growth Observed in Presence of Ciprofloxacin at 4 × MIC: 2
[2]; culture grown 7 days in 4×MIC ciprofloxacin, −Hinokiflavone
  Number of Wells in which Growth Observed in Presence of Ciprofloxacin at 4 × MIC: 3
[2]; culture grown 10 days in 4×MIC ciprofloxacin, −Hinokiflavone
  Number of Wells in which Growth Observed in Presence of Ciprofloxacin at 4 × MIC: 11

## O=c1c(O)c(-c2ccc(O)c(O)c2)oc2cc(O)ccc12 [fisetin]
[1]
  activity in RecA ATPase screen: particularly active

## O=c1cc(-c2ccc(Oc3c(O)cc4oc(-c5ccc(O)cc5)cc(=O)c4c3O)cc2)oc2cc(O)cc(O)c12 [hinokiflavone]
[2]; culture grown 0 days in 4×MIC ciprofloxacin, +Hinokiflavone (25 μg/ml)
  Number of Wells in which Growth Observed in Presence of Ciprofloxacin at 4 × MIC: 0
[2]; culture grown 1 day in 4×MIC ciprofloxacin, +Hinokiflavone (25 μg/ml)
  Number of Wells in which Growth Observed in Presence of Ciprofloxacin at 4 × MIC: 0
[2]; culture grown 5 days in 4×MIC ciprofloxacin, +Hinokiflavone (25 μg/ml)
  Number of Wells in which Growth Observed in Presence of Ciprofloxacin at 4 × MIC: 0
[2]; culture grown 6 days in 4×MIC ciprofloxacin, +Hinokiflavone (25 μg/ml)
  Number of Wells in which Growth Observed in Presence of Ciprofloxacin at 4 × MIC: 0
[2]; culture grown 7 days in 4×MIC ciprofloxacin, +Hinokiflavone (25 μg/ml)
  Number of Wells in which Growth Observed in Presence of Ciprofloxacin at 4 × MIC: 3
[2]; culture grown 10 days in 4×MIC ciprofloxacin, +Hinokiflavone (25 μg/ml)
  Number of Wells in which Growth Observed in Presence of Ciprofloxacin at 4 × MIC: 4
[3]
  fewer CFUs in presence of hinokiflavone as compared with its absence: approximately 100 fold

## COc1cc(-c2oc3cc(O)cc(O)c3c(=O)c2O)ccc1O [isorhamnetin]
[1]
  activity in RecA ATPase screen: particularly active

## O=c1c(O)c(-c2ccc(O)cc2)oc2cc(O)cc(O)c12 [kaempferol]
[1]
  activity in RecA ATPase screen: particularly active

## O=C(c1ccc(O)c(O)c1)c1c(O)cc(O)cc1O [maclurin]
[1]
  activity in RecA ATPase screen: particularly active

## O=c1c(O)c(-c2ccc(O)cc2O)oc2cc(O)cc(O)c12 [morin]
[1]
  activity in RecA ATPase screen: particularly active

## O=c1c(O)c(-c2ccc(O)c(O)c2)oc2cc(O)c(O)c(O)c12 [quercetagetin]
[1]
  activity in RecA ATPase screen: particularly active

## O.O.O=c1c(O)c(-c2ccc(O)c(O)c2)oc2cc(O)cc(O)c12 [quercetin dihydrate]
[1]
  activity in RecA ATPase screen: particularly active

## O=c1c(O)cc([C@H]2Oc3cc(O)cc(O)c3C[C@H]2O)cc2c([C@H]3Oc4cc(O)cc(O)c4C[C@H]3O)cc(O)c(O)c12 [theaflavin]
[1]
  activity in RecA ATPase screen: particularly active

From patent publication US9155792B2, “RecA inhibitors with antibiotic activity, compositions and methods of use” (Trustees of Boston University, priority 2006, dated 2015)
